From publication PMC12150326 (The Journal of Organic Chemistry, 2025)

Legend:
Assay type in all cases: cell-based, human
[1] = test system: A549/ATCC
Description: (§1) (aR)-6, (aS)-6, (aS)-iso -6, and (aR)-iso -6 were submitted to the 60 Cell Screen panel and evaluated at 5 doses (100 μM, 10 μM, 1 μM, 0.1 μM, and 0.01 μM). […] The complete report from this submission is available at the publisher’s Web site as a separate Supporting Information file. For COMPARE analysis, TGI levels of response for (aR)-DM-MTC (6) and (aS)-iso-DM-MTC were compared to those of several established tubulin inhibitors previously tested in the NCI-60 screen.

[2] = test system: CCRF-CEM
Description: as §1

[3] = test system: COLO 205
Description: as §1

[4] = test system: EKVX
Description: as §1

[5] = test system: HCC-2998
Description: as §1

[6] = test system: HCT-15
Description: as §1

[7] = test system: HOP-62
Description: as §1

[8] = test system: HS 578T
Description: as §1

[9] = test system: IGROV1
Description: as §1

[10] = test system: M14
Description: as §1

[11] = test system: MDA-MB-231/ATCC
Description: as §1

[12] = test system: MDA-MB-435
Description: as §1

[13] = test system: NCI-H226
Description: as §1

[14] = test system: NCI-H522
Description: as §1

[15] = test system: OVCAR-4
Description: as §1

[16] = test system: RPMI-8226
Description: as §1

[17] = test system: RXF 393
Description: as §1

[18] = test system: SF-295
Description: as §1

[19] = test system: SF-539
Description: as §1

[20] = test system: SK-MEL-2
Description: as §1

[21] = test system: SK-OV-3
Description: as §1

[22] = test system: SNB-75
Description: as §1

[23] = test system: SW-620
Description: as §1

[24] = test system: U251
Description: as §1

[25] = test system: UACC-257
Description: as §1

[26] = test system: UACC-62
Description: as §1

[27] = test system: UO-31
Description: as §1

Structure (SMILES): COc1cc(C)c(-c2ccc(=O)c(OC)cc2C)c(OC)c1OC (single isomer, unassigned) [(aR)-iso-6]
- Log10GI50 [1]: > -4.00 Molar
- Log10LC50 [1]: > -4.00 Molar
- Log10TGI [1]: > -4.00 Molar
- Log10GI50 [2]: > -4.00 Molar
- Log10LC50 [2]: > -4.00 Molar
- Log10TGI [2]: > -4.00 Molar
- Log10GI50 [3]: > -4.00 Molar
- Log10LC50 [3]: > -4.00 Molar
- Log10TGI [3]: > -4.00 Molar
- Log10GI50 [4]: > -4.00 Molar
- Log10LC50 [4]: > -4.00 Molar
- Log10TGI [4]: > -4.00 Molar
- Log10GI50 [5]: > -4.00 Molar
- Log10LC50 [5]: > -4.00 Molar
- Log10TGI [5]: > -4.00 Molar
- Log10GI50 [6]: > -4.00 Molar
- Log10LC50 [6]: > -4.00 Molar
- Log10TGI [6]: > -4.00 Molar
- Log10GI50 [7]: > -4.00 Molar
- Log10LC50 [7]: > -4.00 Molar
- Log10TGI [7]: > -4.00 Molar
- Log10GI50 [8]: > -4.00 Molar
- Log10LC50 [8]: > -4.00 Molar
- Log10TGI [8]: > -4.00 Molar
- Log10GI50 [9]: > -4.00 Molar
- Log10LC50 [9]: > -4.00 Molar
- Log10TGI [9]: > -4.00 Molar
- Log10GI50 [10]: > -4.00 Molar
- Log10LC50 [10]: > -4.00 Molar
- Log10TGI [10]: > -4.00 Molar
- Log10GI50 [11]: > -4.00 Molar
- Log10LC50 [11]: > -4.00 Molar
- Log10TGI [11]: > -4.00 Molar
- Log10GI50 [12]: > -4.00 Molar
- Log10LC50 [12]: > -4.00 Molar
- Log10TGI [12]: > -4.00 Molar
- Log10GI50 [13]: > -4.00 Molar
- Log10LC50 [13]: > -4.00 Molar
- Log10TGI [13]: > -4.00 Molar
- Log10GI50 [14]: > -4.00 Molar
- Log10LC50 [14]: > -4.00 Molar
- Log10TGI [14]: > -4.00 Molar
- Log10GI50 [15]: > -4.00 Molar
- Log10LC50 [15]: > -4.00 Molar
- Log10TGI [15]: > -4.00 Molar
- Log10GI50 [16]: > -4.00 Molar
- Log10LC50 [16]: > -4.00 Molar
- Log10TGI [16]: > -4.00 Molar
- Log10GI50 [17]: > -4.00 Molar
- Log10LC50 [17]: > -4.00 Molar
- Log10TGI [17]: > -4.00 Molar
- Log10GI50 [18]: > -4.00 Molar
- Log10LC50 [18]: > -4.00 Molar
- Log10TGI [18]: > -4.00 Molar
- Log10GI50 [19]: > -4.00 Molar
- Log10LC50 [19]: > -4.00 Molar
- Log10TGI [19]: > -4.00 Molar
- Log10GI50 [20]: > -4.00 Molar
- Log10LC50 [20]: > -4.00 Molar
- Log10TGI [20]: > -4.00 Molar
- Log10GI50 [21]: > -4.00 Molar
- Log10LC50 [21]: > -4.00 Molar
- Log10TGI [21]: > -4.00 Molar
- Log10GI50 [22]: -4.40 Molar
- Log10LC50 [22]: > -4.00 Molar
- Log10TGI [22]: > -4.00 Molar
- Log10GI50 [23]: > -4.00 Molar
- Log10LC50 [23]: > -4.00 Molar
- Log10TGI [23]: > -4.00 Molar
- Log10GI50 [24]: > -4.00 Molar
- Log10LC50 [24]: > -4.00 Molar
- Log10TGI [24]: > -4.00 Molar
- Log10GI50 [25]: > -4.00 Molar
- Log10LC50 [25]: > -4.00 Molar
- Log10TGI [25]: > -4.00 Molar
- Log10GI50 [26]: > -4.00 Molar
- Log10LC50 [26]: > -4.00 Molar
- Log10TGI [26]: > -4.00 Molar
- Log10GI50 [27]: > -4.00 Molar
- Log10LC50 [27]: > -4.00 Molar
- Log10TGI [27]: > -4.00 Molar

Structure (SMILES): COc1cc(C)c(-c2ccc(OC)c(=O)cc2C)c(OC)c1OC (single isomer, unassigned) [(aS)-6]
- Log10GI50 [1]: > -4.00 Molar
- Log10LC50 [1]: > -4.00 Molar
- Log10TGI [1]: > -4.00 Molar
- Log10GI50 [2]: > -4.00 Molar
- Log10LC50 [2]: > -4.00 Molar
- Log10TGI [2]: > -4.00 Molar
- Log10GI50 [3]: > -4.00 Molar
- Log10LC50 [3]: > -4.00 Molar
- Log10TGI [3]: > -4.00 Molar
- Log10GI50 [4]: > -4.00 Molar
- Log10LC50 [4]: > -4.00 Molar
- Log10TGI [4]: > -4.00 Molar
- Log10GI50 [5]: > -4.00 Molar
- Log10LC50 [5]: > -4.00 Molar
- Log10TGI [5]: > -4.00 Molar
- Log10GI50 [6]: > -4.00 Molar
- Log10LC50 [6]: > -4.00 Molar
- Log10TGI [6]: > -4.00 Molar
- Log10GI50 [7]: > -4.00 Molar
- Log10LC50 [7]: > -4.00 Molar
- Log10TGI [7]: > -4.00 Molar
- Log10GI50 [8]: > -4.00 Molar
- Log10LC50 [8]: > -4.00 Molar
- Log10TGI [8]: > -4.00 Molar
- Log10GI50 [9]: > -4.00 Molar
- Log10LC50 [9]: > -4.00 Molar
- Log10TGI [9]: > -4.00 Molar
- Log10GI50 [10]: > -4.00 Molar
- Log10LC50 [10]: > -4.00 Molar
- Log10TGI [10]: > -4.00 Molar
- Log10GI50 [11]: > -4.00 Molar
- Log10LC50 [11]: > -4.00 Molar
- Log10TGI [11]: > -4.00 Molar
- Log10GI50 [12]: -4.14 Molar
- Log10LC50 [12]: > -4.00 Molar
- Log10TGI [12]: > -4.00 Molar
- Log10GI50 [13]: > -4.00 Molar
- Log10LC50 [13]: > -4.00 Molar
- Log10TGI [13]: > -4.00 Molar
- Log10GI50 [14]: > -4.00 Molar
- Log10LC50 [14]: > -4.00 Molar
- Log10TGI [14]: > -4.00 Molar
- Log10GI50 [15]: > -4.00 Molar
- Log10LC50 [15]: > -4.00 Molar
- Log10TGI [15]: > -4.00 Molar
- Log10GI50 [16]: > -4.00 Molar
- Log10LC50 [16]: > -4.00 Molar
- Log10TGI [16]: > -4.00 Molar
- Log10GI50 [17]: > -4.00 Molar
- Log10LC50 [17]: > -4.00 Molar
- Log10TGI [17]: > -4.00 Molar
- Log10GI50 [18]: > -4.00 Molar
- Log10LC50 [18]: > -4.00 Molar
- Log10TGI [18]: > -4.00 Molar
- Log10GI50 [19]: > -4.00 Molar
- Log10LC50 [19]: > -4.00 Molar
- Log10TGI [19]: > -4.00 Molar
- Log10GI50 [20]: > -4.00 Molar
- Log10LC50 [20]: > -4.00 Molar
- Log10TGI [20]: > -4.00 Molar
- Log10GI50 [21]: > -4.00 Molar
- Log10LC50 [21]: > -4.00 Molar
- Log10TGI [21]: > -4.00 Molar
- Log10GI50 [22]: > -4.00 Molar
- Log10LC50 [22]: > -4.00 Molar
- Log10TGI [22]: > -4.00 Molar
- Log10GI50 [23]: > -4.00 Molar
- Log10LC50 [23]: > -4.00 Molar
- Log10TGI [23]: > -4.00 Molar
- Log10GI50 [24]: > -4.00 Molar
- Log10LC50 [24]: > -4.00 Molar
- Log10TGI [24]: > -4.00 Molar
- Log10GI50 [25]: > -4.00 Molar
- Log10LC50 [25]: > -4.00 Molar
- Log10TGI [25]: > -4.00 Molar
- Log10GI50 [26]: > -4.00 Molar
- Log10LC50 [26]: > -4.00 Molar
- Log10TGI [26]: > -4.00 Molar
- Log10GI50 [27]: > -4.00 Molar
- Log10LC50 [27]: > -4.00 Molar
- Log10TGI [27]: > -4.00 Molar
